In brackets after ≈: the same amount, converted by molar mass.
Experiments:
[1] = test system: MRSA sequestered inside mouse peritoneal macrophages; assay: MIC determination for intracellular bacteria sequestered inside murine macrophages; assay type: cell-based, Staphylococcus aureus; conditions: for MIC: Staphylococcus aureus, MRSA, 24 h, read-out: Intracellular MRSA MIC; for killing of MRSA sequestered inside macrophages: clinically achievable concentrations of the antibiotics
Experimental: Intracellular MIC was determined on bacteria that were sequestered inside mouse peritoneal macrophages (see below for generation of murine peritoneal macrophages). Macrophages were plated in 24 well culture dishes at a density of 4×10^5 cells/mL and infected with MRSA at a ratio of 10-20 bacteria per macrophage. Macrophage cultures were maintained in growth media supplemented with 50 ug/mL of gentamycin (an antibiotic that is active only on extracellular bacteria) to inhibit the growth of extracellular bacteria and test antibiotics were added to the growth media 1 day after infection. The survival of intracellular bacteria was assessed 24 hours after addition of the antibiotics. Macrophages were lysed with Hanks Buffered Saline Solution supplemented with 0.1% Bovine Serum Albumin and 0.1% Triton-X, and serial dilutions of the lysate were made in Phosphate Buffered Saline solution containing 0.05% Tween-20. The number of surviving intracellular bacteria was determined by plating on Tryptic Soy Agar plates with 5% defibrinated sheep blood.
(§1) For extracellular bacteria, MRSA was cultured overnight in Tryptic Soy Broth, and the MIC was determined to be the minimum antibiotic dose that prevented growth. For intracellular bacteria, murine peritoneal macrophages were infected with MRSA and cultured in the presence of gentamycin to kill extracellular bacteria. Test antibiotics were added to the culture medium one day post infection, and the total number of surviving intracellular bacteria was determined 24 hours later. The expected serum concentrations for clinically relevant antibiotics was reported in Antimicrobial Agents, Andre Bryskier. ASM Press, Washington D.C. (2005).

[2] = test system: MRSA (NRS384 strain of USA300); assay: MIC determination for extracellular bacteria in liquid culture; assay type: cell-based; conditions: Staphylococcus aureus, read-out: Extracellular MRSA MIC
Experimental: The MIC for extracellular bacteria was determined by preparing serial 2-fold dilutions of the antibiotic in Tryptic Soy Broth. Dilutions of the antibiotic were made in quadruplicate in 96 well culture dishes. MRSA (NRS384 strain of USA300) was taken from an exponentially growing culture and diluted to 1×10^4 CFU/mL. The bacteria was cultured in the presence of antibiotic for 18-24 hours with shaking at 37° C. and bacterial growth was determined by reading the Optical Density (OD) at […]. The MIC was determined to be the dose of antibiotic that inhibited bacterial growth by >90%.
as §1

[3] = test system: MRSA (USA300 NRS384 strain); assay: Murine intravenous infection model (SCID IVIG model); assay type: in vivo, Staphylococcus aureus; conditions: for mice having undetectable level of bacteria in hearts: day 4, n=8; for reduction of bacterial load in kidneys: vs naked antibody
Experimental: Murine intravenous infection model. For studies involving competing human IgG (SCID IVIG model), CB17.SCID mice (Charles River Laboratories, Hollister, Calif.) were reconstituted with GammaGard S/D IGIV Immune Globulin (ASD Healthcare, Brooks Ky.) using a dosing regimen optimized to achieve constant serum levels of at least 10 mg/mL of human IgG in serum. IGIV was administered with an initial intravenous dose of 30 mg per mouse followed by a second dose of 15 mg/mouse by intraperitoneal injection after 6 hours, and subsequent daily dosing of 15 mg per mouse by intraperitoneal injection for 3 consecutive days.
Mice (n=8 for each of antibody or AAC) were infected 4 hours after the first dose of IGIV with 1×10^7 CFU of MRSA (USA300 NRS384 strain) diluted in phosphate buffered saline by intravenous injection. Infected mice were treated with 50 mg/kg of rF1 naked antibody, 103 AAC DAR2 or 102 AAC DAR4. Mice were given a single dose of AAC 26h post infection by intravenous injection, sacrificed on day 4 post infection, and kidneys and hearts were harvested in 5 mL of phosphate buffered saline. The tissue samples were homogenized using a GentleMACS Dissociator™ (Miltenyi Biotec, Auburn, Calif.). The total number of bacteria recovered per organ was determined by plating serial dilutions of the tissue homogenate in PBS 0.05% Tween on Tryptic Soy Agar with 5% defibrinated sheep blood.

[4] = test system: S. aureus (USA300 NRS384 strain) in murine macrophages; assay: In vitro macrophage assay; assay type: cell-based, Staphylococcus aureus; conditions: for reduction of bacterial loads: highest dose tested (100 ug/mL), intracellular bacteria 2 days later; for killing of intracellular MRSA: macrophage assay in vitro
Experimental: S. aureus (USA300 NRS384 strain) was incubated with various doses (100 ug/mL, 10 ug/mL, 1 ug/mL or 0.1 ug/mL) of an anti-S. aureus unconjugated antibody, 103 AAC loaded with 1.9 average antibiotic molecules per antibody (AAR2) or with 102 AAC loaded with 3.9 average antibiotic molecules per antibody (AAR4) for 1 hour to permit binding of the antibody to the bacteria. The resulting opsonized bacteria were fed to murine macrophages and incubated at 37° C. to permit phagocytosis (in vitro macrophage assay). After 2 hours, the infection mix was removed and replaced with normal growth media supplemented with 50 ug/mL of gentamycin to kill any remaining extracellular bacteria. The total number of surviving intracellular bacteria was determined 2 days later by plating serial dilutions of the macrophage lysates on Tryptic Soy Agar plates.

MRSA = assay: In vitro survival of MRSA in presence of vancomycin (planktonic, on MG63 osteoblasts, inside peritoneal cells); assay type: cell-based, Staphylococcus aureus
Experimental: Further analyses in vitro addressed more quantitatively the extent to which intracellular survival facilitates antibiotic evasion. To this end, MG63 osteoblasts were infected with either planktonic MRSA or intracellular MRSA, in the presence of vancomycin.
Infection of osteoblasts or HBMEC. MG63 cell line was obtained from ATCC (CRL-1427) and maintained in RPMI 1640 tissue culture media supplemented with 10 mM Hepes and 10% Fetal Calf Serum (RPMI-10). HBMEC cells (Catalog #1000) and ECM media (catalog#1001) were obtained from SciencCell Research Labs (Carlsbad, Calif.). Cells were plated in 24 well tissue culture plates and cultured to obtain a confluent layer. On the day of the experiment, the cells were washed once in RPMI (without supplements). MRSA or infected peritoneal cells were diluted in complete RPMI-10 and vancomycin was added at 5 ug/mL immediately prior to infection. Peritoneal cells were added to the osteoblasts at 1×10^6 peritoneal cells/mL. A sample of the cells was lysed with 0.1% triton-x to determine the actual concentration of live intracellular bacteria at the time of infection. The actual titer for all infections was determined by plating serial dilutions of the bacteria on Tryptic Soy Agar with 5% defibrinated sheep blood.
MRSA (free bacteria) was seeded in media, media+vancomycin, or media+vancomycin and plated on a monolayer of MG63 osteoblasts (FIG. 1E) or Human Brain Microvascular Endothelial Cells (HBMEC, FIG. 1F). Plates were centrifuged to promote contact of the bacteria with the monolayer. At each time point, the culture supernatant was collected to recover extracellular bacteria or adherent cells were lysed to release intracellular bacteria.

S. aureus = assay: Mouse intravenous infection with free vs intracellular S. aureus, vancomycin therapy; assay type: in vivo, Staphylococcus aureus; conditions: mice, i.v. infection, vancomycin immediately after infection then once per day, 4 days post infection
Experimental: FIGS. 1A-1F: Intracellular stores of MRSA are protected from vancomycin in vivo and in vitro. […] Four cohorts of mice were infected by intravenous injection with roughly equivalent doses of viable free bacteria or intracellular bacteria and selected groups were treated with vancomycin immediately after infection and then once per day (see Example 2). FIG. 1B and FIG. 1C show bacterial loads in kidney and brain, respectively of infected mice 4 days post infection. The dashed line indicates the limit of detection for the assay. […] (ND=none detected). […] MRSA (free bacteria) was seeded in media, media+vancomycin, or media+vancomycin and plated on a monolayer of MG63 osteoblasts (FIG. 1E) or Human Brain Microvascular Endothelial Cells (HBMEC, FIG. 1F). Extracellular bacteria (free bacteria) grew well in media alone, but were killed by vancomycin. In wells containing a monolayer of mammalian cells (Intracellular+vanco) a fraction of the bacteria were protected from vancomycin during the first 8 hours after infection and were able to expand within the intracellular compartment over 24 hours. Error bars show standard deviation for triplicate wells.
These experiments compared the virulence of intracellular bacteria versus an equivalent dose of free-living planktonic bacteria, and determined whether the intracellular bacteria are able to establish infection in the presence of vancomycin in vivo. […]

[5] = target: glycosylated serine-aspartate repeat (SDR) proteins of Staphylococcus aureus, as displayed on whole bacteria, in lysates or in cell wall preparations; assay: flow cytometry on whole USA300 bacteria
[6] = CB17.SCID mice with IGIV, 50 mg/kg single i.v. dose 26h post infection, day 4

In the case of `CO[C@H]1/C=C/O[C@@]2(C)Oc3c(C)c(O)c4c(O)c(c(/C=N/N5CCN(C)CC5)c(O)c4c3C2=O)NC(=O)/C(C)=C\C=C\[C@H](C)[C@H](O)[C@@H](C)[C@@H](O)[C@@H](C)[C@H](OC(C)=O)[C@@H]1C` [Rifampicin], the “fold higher dose to eliminate intracellular MRSA compared to MIC of planktonic bacteria” value ([1]; intracellular vs planktonic) is reported as 6,000 fold.

For `CCCCCCCCCC(=O)N[C@@H](Cc1c[nH]c2ccccc12)C(=O)N[C@H](CC(N)=O)C(=O)N[C@@H](CC(=O)O)C(=O)N[C@@H]1C(=O)NCC(=O)N[C@@H](CCCN)C(=O)N[C@@H](CC(=O)O)C(=O)N[C@H](C)C(=O)N[C@@H](CC(=O)O)C(=O)NCC(=O)N[C@H](CO)C(=O)N[C@@H]([C@H](C)CC(=O)O)C(=O)N[C@@H](CC(=O)c2ccccc2N)C(=O)O[C@@H]1C` [Daptomycin], the MIC [1] was over 100 µg/mL, the “killing of MRSA sequestered inside macrophages” value [1] was “failed to kill” and the MIC [2] was 4 µg/mL (≈ 2.47 µM).

In the case of “thio-rF1-LC-V205C-MC-(CBDK-cit)-PAB-(dimethylpipBOR) [AAC 103]”, the “mice having undetectable level of bacteria in hearts” value ([3]; 50 mg/kg single i.v. dose) is reported as 6 out of 8, the “reduction of bacterial burdens in heart” value [3, 6] is reported as “approximately 70 fold” and the “reduction of bacterial load in kidneys” value [3, 6] is reported as “approximately 30 fold”. For the same molecule, the “reduction of bacterial loads” value [4] was 350 fold and the “killing of intracellular MRSA” value [4] was “killed intracellular MRSA”.

`CC(=O)NC[C@H]1CN(c2ccc(N3CCOCC3)c(F)c2)C(=O)O1` [Linezolid] was tested, and the “killing of MRSA sequestered inside macrophages” value [1] was “failed to kill”.

In the case of “thio-rF1-HC-121C, LC-V205C-MC-(CBDK-cit)-PAB-(dimethylpipBOR) [AAC 102]”, the “eradication of infection in hearts” value ([3]; 50 mg/kg single i.v. dose, day 4) is reported as “completely eradicated infection in hearts”, the “mice having undetectable level of bacteria in hearts” value ([3]; 50 mg/kg single i.v. dose) is reported as 8 out of 8 and the “reduction of bacterial load in kidneys” value [3, 6] is reported as “more than 30,000 fold”. The “reduction of bacterial loads” value [4] was “more than 4,000 fold” and the “killing of intracellular MRSA” value [4] was “killed intracellular MRSA”.

With `CN[C@H](CC(C)C)C(=O)N[C@H]1C(=O)N[C@@H](CC(N)=O)C(=O)N[C@H]2C(=O)N[C@H]3C(=O)N[C@H](C(=O)N[C@H](C(=O)O)c4cc(O)cc(O)c4-c4cc3ccc4O)[C@H](O)c3ccc(c(Cl)c3)Oc3cc2cc(c3O[C@@H]2O[C@H](CO)[C@@H](O)[C@H](O)[C@H]2O[C@H]2C[C@](C)(N)[C@H](O)[C@H](C)O2)Oc2ccc(cc2Cl)[C@H]1O` [Vancomycin] the “survival of intracellular MRSA in the leukocytes” value (MRSA; MRSA sequestered inside peritoneal cells, vancomycin, identical conditions) was “About 15%”, the “killing of planktonic bacteria” value (MRSA; planktonic bacteria exposed to vancomycin alone, 5 ug/mL, one day in culture) was “efficiently killed” and the “surviving bacteria associated with MG63 cells (% of input)” value (MRSA; planktonic bacteria plated on MG63 osteoblasts, vancomycin, one day after infection) was “approximately 0.06%”. For the same molecule, the “establishment of infection in kidney and brain under vancomycin therapy” value (S. aureus) was “intracellular bacteria, but not planktonic bacteria, were able to establish infection”, the MIC [1] was over 100 µg/mL and the “killing of MRSA sequestered inside macrophages” value [1] was “failed to kill”. For the same molecule, the MIC [2] was 1 µg/mL (≈ 0.69 µM).

B1: monoclonal antibody rF1 (recombinantly produced F1), human IgG1 kappa (antibody, V domains shown)
VH: EVQLVESGGGLVQPGGSLRLSCAASGFTLSRFAMSWVRQAPGRGLEWVASINNGNNPYYARSVQYRFTVSRDVSQNTVSLQMNNLRAEDSATYFCAKDHPSSGWPTFDSWGPGTLVTVSS
VL: DIQLTQSPSALPASVGDRVSITCRASENVGDWLAWYRQKPGKAPNLLIYKTSILESGVPSRFSGSGSGTEFTLTISSLQPDDFATYYCQHYMRFPYTFGQGTKVEIKR
With B1 the fold of maximum binding (MFI) against anti-ClfA mAb 4675 [5] was 10 fold.
